Assays:
[1] = molecular target: T1, human dopamine D3 receptors (Homo sapiens, UniProt P35462); experiment: Dopamine D3 receptor binding, [125I]-iodosulpride displacement; conditions: membranes of HEK-293 cells with human D3 receptors, 0.1 nM [125I]-iodosulpride
T1 construct: expressed in transfected cells; host or cells: HEK-293
Protocol: (§1) The substance to be tested was either dissolved in methanol/Chremophor® (BASF SE) or in dimethyl sulfoxide and then diluted with water to the desired concentration.
(§2) Each assay mixture was run in triplicate. • The incubation buffer contained 50 mM tris, 120 mM NaCl, 5 mM KCl, 2 mM CaCl2, 2 mM MgCl2 and 0.1% bovine serum albumin, 10 μM quinolone and 0.1% ascorbic acid (prepared fresh daily). […] Each assay mixture was run in triplicate. • The incubation buffer contained 50 mM tris, 120 mM NaCl, 5 mM KCl, 2 mM CaCl2, 2 mM MgCl2 and 0.1% bovine serum albumin. The buffer was adjusted to pH 7.4 with HCl. c) Measurement and Analysis: • After having been incubated at 25° C. for 60 minutes, the assay mixtures were filtered through a Whatman GF/B glass fiber filter under vacuum using a cell collecting device. The filters were transferred to scintillation viols using a filter transfer system. After 4 ml of Ultima Gold® (Packard) have been added, the samples were shaken for one hour and the radioactivity was then counted in a Beta-Counter (Packard, Tricarb 2000 or 2200CA).

[2] = Determination of the microsomal half-life / microsomal clearance; type: in vitro ADME; conditions: human liver microsomes, 0.5 μM test substance, 0.25 mg microsomal protein/ml, pH 7.4, 37° C.
Protocol: The metabolic stability of the compounds of the invention was determined in the following assay.
The test substances were incubated in a concentration of 0.5 μM as follows:
0.5 μM test substance are preincubated together with liver microsomes from different species (from rat, human or other species) (0.25 mg of microsomal protein/ml) in 0.05 M potassium phosphate buffer of pH 7.4 in microtiter plates at 37° C. for 5 min. The reaction is started by adding NADPH (1 mg/mL). After 0, 5, 10, 15, 20 and 30 min, 50 μl aliquots are removed, and the reaction is immediately stopped and cooled with the same volume of acetonitrile. The samples are frozen until analyzed. The remaining concentration of undegraded test substance is determined by MSMS. The half-life (T1/2) is determined from the gradient of the signal of test substance/unit time plot, it being possible to calculate the half-life of the test substance, assuming first order kinetics, from the decrease in the concentration of the compound with time. The microsomal clearance (mCl) is calculated from mCl=1n2/T1/2/(content of microsomal protein in mg/ml)×1000 [[…]] (modified from references: Di, The Society for Biomoleculur Screening, 2003, 453-462; Obach, DMD, 1999 vol 27. N 11, 1350-1359).

[3] = molecular target: T2, human dopamine D2L receptors (long isoform) (Homo sapiens, UniProt P14416); experiment: Dopamine D2L receptor binding, [125I]-iodospiperone displacement; conditions: selectivity ratio Ki (D2L)/Ki (D3)
T2 construct: expressed in transfected cells; host or cells: HEK-293
Protocol: as §1, §2

T1 sequence (P35462 whole entry): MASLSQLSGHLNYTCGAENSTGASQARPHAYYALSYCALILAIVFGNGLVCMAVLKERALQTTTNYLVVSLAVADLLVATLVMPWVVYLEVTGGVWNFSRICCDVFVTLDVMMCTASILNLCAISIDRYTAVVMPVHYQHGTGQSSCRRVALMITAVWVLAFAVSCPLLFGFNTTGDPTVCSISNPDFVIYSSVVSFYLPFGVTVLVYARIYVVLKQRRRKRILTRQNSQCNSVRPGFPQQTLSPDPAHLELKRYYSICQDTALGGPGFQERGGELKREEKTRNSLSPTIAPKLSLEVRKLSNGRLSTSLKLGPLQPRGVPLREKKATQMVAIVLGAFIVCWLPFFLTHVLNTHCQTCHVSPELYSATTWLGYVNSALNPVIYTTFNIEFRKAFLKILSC
T2 sequence (P14416 whole entry, canonical isoform): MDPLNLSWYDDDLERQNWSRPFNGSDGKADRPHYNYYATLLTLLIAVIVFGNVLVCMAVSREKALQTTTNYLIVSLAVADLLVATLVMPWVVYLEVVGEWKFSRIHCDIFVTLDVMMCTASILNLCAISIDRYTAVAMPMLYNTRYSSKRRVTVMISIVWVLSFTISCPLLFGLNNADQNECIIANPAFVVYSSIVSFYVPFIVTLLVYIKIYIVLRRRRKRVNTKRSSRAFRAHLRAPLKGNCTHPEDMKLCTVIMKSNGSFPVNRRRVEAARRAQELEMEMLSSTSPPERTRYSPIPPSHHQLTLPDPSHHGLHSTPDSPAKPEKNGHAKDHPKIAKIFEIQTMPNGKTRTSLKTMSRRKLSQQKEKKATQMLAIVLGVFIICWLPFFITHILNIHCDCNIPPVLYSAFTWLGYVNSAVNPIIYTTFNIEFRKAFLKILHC

| Compound | Ki [1] | Human mCl [2] | D2/D3, Ki (D2L)/Ki (D3) [3] |
| --- | --- | --- | --- |
| CC(C)(C)c1nc(C2CCC2)cc(N2CCN(CC[C@H]3CC[C@@H](NC(=O)[C@H]4CC[C@@H](O)CC4)CC3)CC2)n1.O=C(O)C(F)(F)F [Compound 15, Cis-N-[cis-4-[2-[4-(2-tert-butyl-6-cyclobutyl-pyrimidin-4-yl)piperazin-1-yl]ethyl]cyclohexyl]-4-hydroxy-cyclohexanecarboxamide; 2,2,2-trifluoroacetic acid] | < 0.01 µM | ∘ (∘: >120 μl min^−1 mg^−1) | +++ (+++>50) |
| CC(C)(C)c1nc(N2CCN(CC[C@H]3CC[C@H](NC(=O)[C@H]4CC[C@H](O)CC4)CC3)CC2)cc(C(F)(F)F)n1 [Compound 21, trans-N-[trans-4-[2-[4-[2-tert-butyl-6-(trifluoromethyl)pyrimidin-4-yl]piperazin-1-yl]ethyl]cyclohexyl]-4-hydroxy-cyclohexanecarboxamide] | < 0.01 µM | + (+: 20-120 μl min^−1 mg^−1) | ++ (++>20) |
| COCCc1cc(N2CCN(CC[C@H]3C[C@@H](NC(=O)[C@H]4CC[C@H](O)CC4)C3)CC2)nc(C(C)(C)C)n1.O=C(O)C(F)(F)F [Compound 8, trans-N-[cis-3-[2-[4-[2-tert-butyl-6-(2-methoxyethyl)pyrimidin-4-yl]piperazin-1-yl]ethyl]cyclobutyl]-4-hydroxy-cyclohexanecarboxamide; 2,2,2-trifluoroacetic acid] | < 0.01 µM | + (+: 20-120 μl min^−1 mg^−1) | +++ (+++>50) |
| CC(C)(C)c1nc(C2CCC2)cc(N2CCN(CC[C@H]3CC[C@H](NC(=O)[C@H]4C[C@@H](O)C4)CC3)CC2)n1 [Compound 13, Cis-N-[trans-4-[2-[4-(2-tert-butyl-6-cyclobutyl-pyrimidin-4-yl)piperazin-1-yl]ethyl]cyclohexyl]-3-hydroxy-cyclobutanecarboxamide] | < 0.01 µM | ∘ (∘: >120 μl min^−1 mg^−1) | ++ (++>20) |
| CC(C)(C)c1nc(C(F)F)cc(N2CCN(CC[C@H]3CC[C@@H](NC(=O)[C@H]4CC[C@H](O)CC4)CC3)CC2)n1 [Compound 30, Trans-N-[cis-4-[2-[4-[2-tert-butyl-6-(difluoromethyl)pyrimidin-4-yl]piperazin-1-yl]ethyl]cyclohexyl]-4-hydroxy-cyclohexanecarboxamide] | < 0.01 µM | + (+: 20-120 μl min^−1 mg^−1) | ++ (++>20) |
| COCCc1cc(N2CCN(CC[C@H]3CC[C@H](NC(=O)[C@H]4CC[C@H](OC)CC4)CC3)CC2)nc(C(C)(C)C)n1 [Compound 24, trans-N-[trans-4-[2-[4-[2-tert-butyl-6-(2-methoxyethyl)pyrimidin-4-yl]piperazin-1-yl]ethyl]cyclohexyl]-4-methoxy-cyclohexanecarboxamide] | < 0.05 µM | ∘ (∘: >120 μl min^−1 mg^−1) | ++ (++>20) |
| COCCc1cc(N2CCN(CC[C@H]3CC[C@@H](NC(=O)[C@H]4C[C@@H](O)C4)CC3)CC2)nc(C(C)(C)C)n1 [Compound 17, cis-N-[cis-4-[2-[4-[2-tert-butyl-6-(2-methoxyethyl)pyrimidin-4-yl]piperazin-1-yl]ethyl]cyclohexyl]-3-hydroxy-cyclobutanecarboxamide] | < 0.01 µM | ∘ (∘: >120 μl min^−1 mg^−1) | +++ (+++>50) |
| CC(C)(C)c1nc(C2CCC2)cc(N2CCN(CC[C@H]3C[C@H](NC(=O)[C@H]4C[C@H](O)C4)C3)CC2)n1.O=C(O)C(F)(F)F [Compound 39, trans-N-[trans-3-[2-[4-(2-tert-butyl-6-cyclobutyl-pyrimidin-4-yl)piperazin-1-yl]ethyl]cyclobutyl]-3-hydroxy-cyclobutanecarboxamide; 2,2,2-trifluoroacetic acid] | < 0.01 µM | ++ (++: <20 μl min^−1 mg^−1) | +++ (+++>50) |
| CC(C)c1cc(N2CCN(CC[C@H]3CC[C@H](NC(=O)[C@H]4CC[C@H](O)CC4)CC3)CC2)nc(C(C)(C)C)n1 [Compound 32, Trans-N-[trans-4-[2-[4-(2-tert-butyl-6-isopropyl-pyrimidin-4-yl)piperazin-1-yl]ethyl]cyclohexyl]-4-hydroxy-cyclohexanecarboxamide] | < 0.01 µM | + (+: 20-120 μl min^−1 mg^−1) | ++ (++>20) |
| CC(C)(C)c1nc(N2CCN(CCC3CCC(NC(=O)C4CCC(O)CC4)CC3)CC2)cc(C2(C)CC2)n1 (stereo not drawn) [Compound 27, N-[4-[2-[4-[2-tert-butyl-6-(1-methylcyclopropyl)pyrimidin-4-yl]piperazin-1-yl]ethyl]cyclohexyl]-4-hydroxy-cyclohexanecarboxamide] | < 0.01 µM | + (+: 20-120 μl min^−1 mg^−1) | ++ (++>20) |
| COCCc1cc(N2CCN(CC[C@H]3CC[C@H](NC(=O)[C@H]4C[C@@H](O)C4)CC3)CC2)nc(C(C)(C)C)n1 [Compound 18, cis-N-[trans-4-[2-[4-[2-tert-butyl-6-(2-methoxyethyl)pyrimidin-4-yl]piperazin-1-yl]ethyl]cyclohexyl]-3-hydroxy-cyclobutanecarboxamide] | < 0.01 µM | + (+: 20-120 μl min^−1 mg^−1) | +++ (+++>50) |
| CC(C)(C)c1nc(C2CCC2)cc(N2CCN(CC[C@H]3CC[C@H](NC(=O)[C@H]4C[C@H](O)C4)CC3)CC2)n1.O=C(O)C(F)(F)F [Compound 38, trans-N-[trans-4-[2-[4-(2-tert-butyl-6-cyclobutyl-pyrimidin-4-yl)piperazin-1-yl]ethyl]cyclohexyl]-3-hydroxy-cyclobutanecarboxamide; 2,2,2-trifluoroacetic acid] | < 0.01 µM | ++ (++: <20 μl min^−1 mg^−1) | ++ (++>20) |
| CC(C)(C)c1nc(C2CCC2)cc(N2CCN(CC[C@H]3CC[C@H](NC(=O)C4CC(O)(C(F)(F)F)C4)CC3)CC2)n1 (relative stereo) [Compound 19, N-[trans-4-[2-[4-(2-tert-butyl-6-cyclobutyl-pyrimidin-4-yl)piperazin-1-yl]ethyl]cyclohexyl]-3-hydroxy-3-(trifluoromethyl)cyclobutanecarboxamide] | < 0.01 µM | + (+: 20-120 μl min^−1 mg^−1) | + (+>10) |
| CC(C)(C)c1nc(C(F)F)cc(N2CCN(CCC3CCC(NC(=O)C4CCC(O)CC4)CC3)CC2)n1 (stereo not drawn) [Compound 29, N-[4-[2-[4-[2-tert-butyl-6-(difluoromethyl)pyrimidin-4-yl]piperazin-1-yl]ethyl]cyclohexyl]-4-hydroxy-cyclohexanecarboxamide] | < 0.01 µM | + (+: 20-120 μl min^−1 mg^−1) | + (+>10) |

Source: US9388141B2, “Acylaminocycloalkyl compounds suitable for treating disorders that respond to modulation of dopamine D3 receptor” (AbbVie Deutschland GmbH & Co. KG, priority 2013, dated 2016)
